US20250345370A1, “MICROBIAL LIBERATION OF N-METHYLSEROTONIN FROM ORANGE FIBER” (Washington University, priority 2022, published 2025)

Key:
[1] = N-methylserotonin degradation test in bacterial monocultures; settings: 5 ng/ml added to monocultures of the 14 strains, 72-hour period
Description: Experiments to determine whether N-methylserotonin is synthesized de novo by B. ovatus were carried out in 10 mL TYG with or without supplementation with tryptophan, tryptamine, serotonin, dimethylserotonin, trimethylserotonin, methyltryptamine, or S-adenosyl methionine (final concentrations; 5 mg/mL; all from Sigma). Experiments seeking to test the capacity of all 14 bacterial strains introduced into mice to degrade N-methylserotonin in vitro were carried out using 10 mL TYG and 50 ng N-methylserotonin, with samples collected every 24 hours. Assays were performed in triplicate for each condition, using the protocol described herein.
Several other experiments were performed to characterize in vitro N-methylserotonin liberation by members of the 14 strain consortia.

colon gene expression = test: RNA-Seq of colonic tissue of germ-free mice treated with 50 mg/kg/d N-methylserotonin; assay type: in vivo, germ-free C57BL/6J mice; settings: for log2 fold-change: colon
[2] = Targeted LC-QqQ-MS of N-methylserotonin levels in gut contents, tissues, plasma and feces of gnotobiotic mice
5-Htr2A = 5-Htr2A (Homo sapiens, UniProt P28223); settings: in vitro studies; cited from earlier work
[3] = 14-member consortium, 10% orange fiber diet

5-Htr2A, sequence (P28223 whole entry): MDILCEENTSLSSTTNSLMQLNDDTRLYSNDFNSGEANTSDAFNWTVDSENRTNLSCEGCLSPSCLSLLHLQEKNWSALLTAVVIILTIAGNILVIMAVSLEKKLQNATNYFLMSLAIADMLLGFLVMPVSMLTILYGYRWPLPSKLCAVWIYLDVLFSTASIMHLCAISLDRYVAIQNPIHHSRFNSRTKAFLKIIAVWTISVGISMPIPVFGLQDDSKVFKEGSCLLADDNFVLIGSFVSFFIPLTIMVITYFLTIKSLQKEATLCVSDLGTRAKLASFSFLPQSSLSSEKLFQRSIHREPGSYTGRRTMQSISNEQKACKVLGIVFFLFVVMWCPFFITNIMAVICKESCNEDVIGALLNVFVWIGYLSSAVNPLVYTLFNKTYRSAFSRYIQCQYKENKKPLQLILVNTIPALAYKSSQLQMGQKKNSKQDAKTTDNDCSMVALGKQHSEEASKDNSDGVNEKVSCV

In the case of CNCCc1c[nH]c2ccc(O)cc12 [N-methylserotonin], the “input N-methylserotonin remaining intact/unmodified” value [1] is reported as 97±2%, the “colonic expression of known (Htr7, Htr2A) or related (Htr3, Htr4, Htr5 and Htr6) receptors” value (colon gene expression; 50 mg/kg/d vs untreated) is reported as “did not reveal any statistically significant effects” and the “number of genes with statistically significant differences in expression in colonic tissue” value (colon gene expression; 50 mg/kg/d vs untreated, FDR-adjusted p<0.05) is reported as “Seven hundred and forty-eight”. It also gave a log2 fold-change (colon gene expression; gene 6430548M08Rik) of 0.47, a log2 fold-change (colon gene expression; gene Aass) of 4.35 and a log2 fold-change (colon gene expression; gene Adgrg6) of 1.06. For the same compound, the log2 fold-change (colon gene expression; gene Adgrl1) was 0.82, the log2 fold-change (colon gene expression; gene Aldh1l2) was 1.36 and the log2 fold-change (colon gene expression; gene Ankrd35) was 1.27. The log2 fold-change (colon gene expression; gene Anxa9) was 3.41, the log2 fold-change (colon gene expression; gene Arhgef17) was 0.43 and the log2 fold-change (colon gene expression; gene Atf5) was 0.70. The log2 fold-change (colon gene expression; gene Atp6v1c2) was 5.46, the log2 fold-change (colon gene expression; gene Azgp1) was 3.05 and the log2 fold-change (colon gene expression; gene Baiap2) was 0.55. For the same compound, the log2 fold-change (colon gene expression; gene Bcl9l) was 0.57, the log2 fold-change (colon gene expression; gene Bhlha15) was 2.54 and the log2 fold-change (colon gene expression; gene C1s2) was 6.81. For the same compound, the log2 fold-change (colon gene expression; gene Cabp1) was 2.18, the log2 fold-change (colon gene expression; gene Cbx6) was 0.65 and the log2 fold-change (colon gene expression; gene Cecr2) was 1.23. The log2 fold-change (colon gene expression; gene Cirbp) was 0.65, the log2 fold-change (colon gene expression; gene Clca4a) was 0.41 and the log2 fold-change (colon gene expression; gene Col18a1) was 0.40. It also gave a log2 fold-change (colon gene expression; gene Crybg2) of 0.56, a log2 fold-change (colon gene expression; gene Dbp) of 1.14 and a log2 fold-change (colon gene expression; gene Derl3) of 3.02. For the same compound, the log2 fold-change (colon gene expression; gene Dixdc1) was 0.49, the log2 fold-change (colon gene expression; gene Dkkl1) was 4.99 and the log2 fold-change (colon gene expression; gene Dnase2b) was 6.74. It also gave a log2 fold-change (colon gene expression; gene Doxl2) of 0.01, a log2 fold-change (colon gene expression; gene Epop) of 1.75 and a log2 fold-change (colon gene expression; gene Fam214a) of 0.49. It also gave a log2 fold-change (colon gene expression; gene Fbf1) of 0.51, a log2 fold-change (colon gene expression; gene Fgl1) of 3.75 and a log2 fold-change (colon gene expression; gene Gdf7) of 2.66. For the same compound, the log2 fold-change (colon gene expression; gene Gdf10) was 0.91, the log2 fold-change (colon gene expression; gene Gm973) was 1.71 and the log2 fold-change (colon gene expression; gene Gprc5c) was 2.14. It also gave a log2 fold-change (colon gene expression; gene Gsdma) of 3.93, a log2 fold-change (colon gene expression; gene Gspt2) of 1.14 and a log2 fold-change (colon gene expression; gene Hdac7) of 0.63. The log2 fold-change (colon gene expression; gene Hoxd9) was 1.18, the log2 fold-change (colon gene expression; gene Igfbp5) was 0.78 and the log2 fold-change (colon gene expression; gene Impdh1) was 0.53. It also gave a log2 fold-change (colon gene expression; gene Islr) of 0.52, a log2 fold-change (colon gene expression; gene Itpripl2) of 0.42 and a log2 fold-change (colon gene expression; gene Jag2) of 0.92. The log2 fold-change (colon gene expression; gene Kdm6b) was 0.57, the log2 fold-change (colon gene expression; gene Krt14) was 2.57 and the log2 fold-change (colon gene expression; gene Lamc1) was 0.37. It also gave a log2 fold-change (colon gene expression; gene Lrrc75b) of 2.59, a log2 fold-change (colon gene expression; gene Man2a2) of 0.35 and a log2 fold-change (colon gene expression; gene Masp1) of 1.38. For the same compound, the log2 fold-change (colon gene expression; gene Mns1) was 1.12, the log2 fold-change (colon gene expression; gene Mtss2) was 0.61 and the log2 fold-change (colon gene expression; gene Mxra8) was 0.45. For the same compound, the log2 fold-change (colon gene expression; gene Nkx3-1) was 0.01, the log2 fold-change (colon gene expression; gene Npr1) was 0.99 and the log2 fold-change (colon gene expression; gene Nr1d1) was 0.81. It also gave a log2 fold-change (colon gene expression; gene Nucb2) of 3.53, a log2 fold-change (colon gene expression; gene Pacsin3) of 0.87 and a log2 fold-change (colon gene expression; gene Panct2) of 1.72. The log2 fold-change (colon gene expression; gene Pate4) was 7.55, the log2 fold-change (colon gene expression; gene Pate9) was 0.01 and the log2 fold-change (colon gene expression; gene Pate14) was 6.47. For the same compound, the log2 fold-change (colon gene expression; gene Per2) was 0.67, the log2 fold-change (colon gene expression; gene Pgm5) was 0.29 and the log2 fold-change (colon gene expression; gene Pik3ip1) was 1.04. It also gave a log2 fold-change (colon gene expression; gene Pitpnm3) of 0.67, a log2 fold-change (colon gene expression; gene Plau) of 0.93 and a log2 fold-change (colon gene expression; gene Pou3f3) of 1.18. It also gave a log2 fold-change (colon gene expression; gene Prrc2a) of 0.49, a log2 fold-change (colon gene expression; gene Ptges) of 1.14 and a log2 fold-change (colon gene expression; gene Rapgef3) of 0.54. For the same compound, the log2 fold-change (colon gene expression; gene Rbms3) was 0.45, the log2 fold-change (colon gene expression; gene Rcn1) was 2.72 and the log2 fold-change (colon gene expression; gene Rec8) was 1.38. For the same compound, the log2 fold-change (colon gene expression; gene Rgs7bp) was 0.57, the log2 fold-change (colon gene expression; gene Rhobtb3) was 0.86 and the log2 fold-change (colon gene expression; gene Serpine2) was 2.50. It also gave a log2 fold-change (colon gene expression; gene Serpinf1) of 0.82, a log2 fold-change (colon gene expression; gene Shroom1) of 2.33 and a log2 fold-change (colon gene expression; gene Slc4a8) of 1.04. The log2 fold-change (colon gene expression; gene Slc23a1) was 1.80, the log2 fold-change (colon gene expression; gene Sp8) was 2.57 and the log2 fold-change (colon gene expression; gene Spinkl) was 7.58. It also gave a log2 fold-change (colon gene expression; gene Spock2) of 0.54, a log2 fold-change (colon gene expression; gene Sptb) of 0.85 and a log2 fold-change (colon gene expression; gene Stard5) of 0.43. For the same compound, the log2 fold-change (colon gene expression; gene Sva) was 6.86, the log2 fold-change (colon gene expression; gene Syvn1) was 0.58 and the log2 fold-change (colon gene expression; gene Tgfbr3) was 0.43. The log2 fold-change (colon gene expression; gene Tgm4) was 9.55, the log2 fold-change (colon gene expression; gene Tmem44) was 0.56 and the log2 fold-change (colon gene expression; gene Tns1) was 0.44. It also gave a log2 fold-change (colon gene expression; gene Uox) of 2.40, a log2 fold-change (colon gene expression; gene Upk1b) of 2.61 and a log2 fold-change (colon gene expression; gene Vat1) of 0.64. The log2 fold-change (colon gene expression; gene Vwa1) was 0.64, the log2 fold-change (colon gene expression; gene Zbtb4) was 0.37 and the log2 fold-change (colon gene expression; gene Zbtb16) was 1.21. For the same compound, the log2 fold-change (colon gene expression; gene Zfhx3) was 0.54, the “fecal N-methylserotonin levels” value ([2]; 14-member community, orange fiber-supplemented HiSF-LoFV diet) was 131±19 ng/g feces and the “N-methylserotonin in cecal contents” value [2, 3] was 173 ± 14 ng/g. For the same compound, the “N-methylserotonin in cecal tissue” value [2, 3] was 130 ± 13 ng/g, the “N-methylserotonin in colonic contents” value [2, 3] was 139 ± 13 ng/g and the “N-methylserotonin in colonic tissue” value [2, 3] was 164 ± 25 ng/g. For the same compound, the N-methylserotonin in plasma [2, 3] was 1.22 ± 0.76 ng/mL, the “N-methylserotonin in small intestine, liver, gastrocnemius muscle and kidney” value [2, 3] was under 1 ng/g and the “N-methylserotonin in cecal or colonic contents or intestinal and extra-intestinal tissues” value ([2]; 14-member consortium, 10% pea fiber diet, below limits of detection) was under 0.5 ng/g. The “fecal N-methylserotonin levels” value ([2]; germ-free mice, 1 mg/kg/day in drinking water) was 133.5 ± 15 ng/g and the binding (5-Htr2A) was “binds”.
